From publication PMC12670164, “In vitro and clinical data demonstrate negligible risk of drug–drug interactions with opelconazole, a novel inhaled antifungal agent” (Journal of Antimicrobial Chemotherapy, 2025) come the findings set out here.

For one data set, the target named is CYP3A4 (Homo sapiens, UniProt P08684). Description: clinical. The method, then:
The study documents were approved by an Independent Ethics Committee. Study participants provided written informed consent prior to any study procedures.
Screening occurred within 28 days prior to the first dosing day (Figure 1). […] On Days 1 and 15, participants received oral midazolam 7.5 mg and oral caffeine 180 mg together after food ingestion.
Morning doses of opelconazole on Day 2 and Day 15 were taken 30 min after food ingestion.
Primary PK parameters assessed for midazolam and its metabolites (1-OH-midazolam, 4-OH-midazolam), caffeine and opelconazole were Cmax and AUC, from time zero to t, where t is the time of the last quantifiable concentration (AUC(0−t); i.e., AUC(0−12) and AUC(0−24)). Secondary PK parameters were AUC(0−∞), Tmax, apparent t1/2 and accumulation ratio (RO) of opelconazole only.
For caffeine, midazolam and the metabolites of midazolam, the geometric mean ratio (GMR) of Day 15 estimates to those obtained on Day 1 was derived by fitting a linear mixed effect model with the log of the parameter as the response, visit as the fixed effect, and participant as the random effect.

The test system of data set [1] is CYP1A2. Put plainly: clinical. As to conditions: both, human, plasma, po, 180 mg, probe caffeine.
Excerpt: To adjust for any residual caffeine in plasma samples, the estimated contribution of residual, pre-dose caffeine was subtracted from the measured caffeine concentration to produce an ‘adjusted concentration.’ Residual caffeine concentrations were estimated from the baseline concentration and the measured elimination rate in individual participants.
The test system of data set [2] is CYP1A2. Description: CYP induction, mRNA endpoint, cryopreserved human hepatocytes. As to conditions: human, 72 h. The method, then:
The potential for opelconazole to act as an inducer of CYP isoforms CYP1A2, CYP2B6 and CYP3A4 was assessed in vitro using an mRNA endpoint across three donors in cryopreserved human hepatocytes. A drug is interpreted as an inducer if: (1) it increases mRNA expression of a CYP enzyme in a concentration-dependent manner and (2) the fold change of CYP mRNA expression relative to vehicle control is ≥2-fold at the drug’s expected hepatic concentrations.[23]
A cytotoxicity assessment using MTT was performed in one of the three donors used for the induction studies prior to dosing.

Setting [3] is: Day 1, oral midazolam 7.5 mg without opelconazole.
[4] abbreviates: Day 15, oral midazolam 7.5 mg after 14 days inhaled opelconazole 14.8 mg twice daily.
The mark [5] stands for this setting: both, human, in vivo, po, 7.5 mg.

CYP3A4, sequence (P08684 whole entry): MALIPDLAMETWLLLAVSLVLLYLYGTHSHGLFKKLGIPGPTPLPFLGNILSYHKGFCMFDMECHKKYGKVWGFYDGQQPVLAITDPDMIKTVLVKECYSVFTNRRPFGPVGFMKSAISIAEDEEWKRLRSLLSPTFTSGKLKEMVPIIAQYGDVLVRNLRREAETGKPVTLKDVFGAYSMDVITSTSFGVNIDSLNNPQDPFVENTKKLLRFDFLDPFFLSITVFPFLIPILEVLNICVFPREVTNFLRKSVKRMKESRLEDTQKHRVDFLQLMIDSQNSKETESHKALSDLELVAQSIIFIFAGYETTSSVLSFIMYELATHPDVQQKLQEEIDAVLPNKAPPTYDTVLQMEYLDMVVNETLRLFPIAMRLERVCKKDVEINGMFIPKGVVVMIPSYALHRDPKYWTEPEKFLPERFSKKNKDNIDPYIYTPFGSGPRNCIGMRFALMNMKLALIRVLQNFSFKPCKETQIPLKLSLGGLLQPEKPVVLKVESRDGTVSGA

Turning to `OCc1ncc2n1-c1ccc(Cl)cc1C(c1ccccc1F)=NC2` [1-OH-Midazolam, 1-OH-midazolam], the entries for the “AUC(0–24h), geometric mean” value on CYP3A4 (setting [3]) and on CYP3A4 (setting [4]) were 72.8 ng·h/mL and 60.9 ng·h/mL, respectively. The figures for the “Cmax, geometric mean” value on CYP3A4 (setting [3]) and at CYP3A4 (setting [4]) were 16.7 ng/mL and 13.4 ng/mL, respectively.
Consider `Cc1ncc2n1-c1ccc(Cl)cc1C(c1ccccc1F)=NC2O` (stereo not shown) [4-OH-Midazolam, 4-OH-midazolam], for which, on CYP3A4 (setting [3]), the “AUC(0–24h), geometric mean” value worked out at 8.92 ng·h/mL and the “Cmax, geometric mean” value was 1.97 ng/mL. Moreover, on CYP3A4 (setting [4]), the “AUC(0–24h), geometric mean” value is 8.70 ng·h/mL and the “Cmax, geometric mean” value came to 1.78 ng/mL.
Consider `Cn1c(=O)c2c(ncn2C)n(C)c1=O` [Caffeine, caffeine], for which, in the data set with CYP1A2 [1], the AUC(0-t) (usually the area under the concentration-time curve up to a stated or last time point) was 33200 ng·h/mL and the peak level (Cmax) was 3280 ng/mL.
Turning to `Cc1ncc2n1-c1ccc(Cl)cc1C(c1ccccc1F)=NC2` [Midazolam, midazolam, reference compound], at CYP3A4 (setting [5]), the exposure AUC(0-t) worked out at 166 ng·h/mL and the concentration peaked (Cmax) at 35.1 ng/mL.
For `COc1ccc2[nH]c([S+]([O-])Cc3ncc(C)c(OC)c3C)nc2c1` (stereo not shown) [omeprazole, reference compound], the “induction outcome of positive control relative to opelconazole” value in the data set with CYP1A2 [2] was > 30 fold.
